The subject of experiment [1] is PLK1. Nature of the experiment: Mitotic index (H3S10ph) in cells expressing wildtype or T210D PLK1 (FIG. 4D). In kind it is cell-based. The conditions noted are these: dose dependent.
Experiment [2] deals with control and CDCA3-depleted cells. Nature of the experiment: Mitotic entry and recovery from cisplatin-induced G2 checkpoint, flow cytometry of Ser-10 phosphorylated histone H3 (FIG. 2C). In kind it is cell-based. The conditions noted are these: after cisplatin-induced G2 checkpoint; both control and CDCA3-depleted cells. An excerpt:
FIG. 2. (A) Undamaged cells depleted of CDCA3 progress to mitosis slower than control cells or cells complemented with siRNA resistant CDCA3. (B) Cisplatin treated cells and depleted of CDCA3 are unable to recover from cell cycle arrest. (C) Cells treated with Cisplatin and then a PLK1 inhibitor are unable to recover from cell cycle arrest.
As this protein is reported to regulate cell proliferation (as confirmed by data in FIG. 7), the present inventors investigated its potential role in cell cycle progression from G2 into mitosis. To examine cell cycle progression, control cells, CDCA3-depleted cells or depleted cells ectopically expressing siRNA resistant CDCA3-FLAG were synchronized at the G1/S cell cycle boundary by a double thymidine block and released for seven hours (˜G2 phase). At this time cells were treated with or without cisplatin for 3.5 h and released into nocodazole containing media to capture cells in mitosis. Mitotic cells were determined by flow cytometry analysis of cells stained for Ser-10 phosphorylated histone H3. In undamaged cells, CDCA3 depletion slowed the progression of cells from G2 into mitosis (FIG. 2A). However, in cisplatin treated cells, CDCA3 depletion abolished mitotic progression with an inability to recover from G2 cell cycle arrest (FIG. 2B). […]
(In flow cytometry, cells or beads pass a laser one at a time.)

Experiment [3] has as its system NSCLC cells. Nature of the experiment: Cell death with cisplatin and/or BI 2536 in control versus CDCA3 depleted NSCLC cells (FIG. 9B). It counts as cell-based. The conditions noted are these: monotherapy.
In experiment [4] the test system is CDCA3 and PLK1. Nature of the experiment: Immunoprecipitation of CDCA3 with PBD of PLK1 under CDK1 inhibition (FIG. 5E). It counts as cell-based. As to conditions: inhibition of CDK1 to block CDCA3 phosphorylation. The text has this:
FIG. 5. (A) PLK1 schematic listing kinase domain and polo-box domain (PBD). (B) CDCA3 immunoprecipitates with the PBD of PLK1 irrespective of the phospho-binding mutant (H538 and K540 each mutated to alanine residues). (C) CDCA3 is phosphorylated by CDK1-cyclin B1 causing a large molecular weight shift measured by SDS-PAGE. (D) Mutating each of the five CDK1-cyclin B1 phosphorylation sites within CDCA3 enhances binding to PLK1. (E) Inhibition of CDK1 with RO3306 enhances immunoprecipitation of CDCA3 with the PBD domain of PLK1. (F) Unmodified recombinant CDCA3 binds to recombinant Aurora A and PLK1. CDCA3 pre-phosphorylated by CDK1-cyclin B1 binds markedly less to PLK1 than unmodified CDCA3. (G) Recombinant unmodified CDCA3 but not phosphorylated CDCA3 enhances the in vitro activation and phosphorylation of PLK1 by Aurora A.
The present inventors next examined the mechanism regulating the association between CDCA3 and PLK1. The structure of PLK1 consists of an N-terminal kinase domain and a […] polo-box domain (PBD; FIG. 5A). Classically, the PBD binds phosphorylated substrates requiring the residues His538 and Lys540. Using immunoprecipitation analysis of lysates from cells ectopically expressing CDCA3 and the PBD of PLK1, it was identified that CDCA3 associates with the PLK1 PBD independent of residues His538 and Lys540 (FIG. 5B). […]

Experiment [5] deals with NSCLC cells. Nature of the experiment: Cisplatin IC50 in CDCA3-depleted versus control NSCLC cells (FIG. 8). In kind it is cell-based. The text has this:
FIG. 8. CDCA3-depletion reduces cisplatin IC50 values ˜2-4 fold versus control NSCLC cells but not non-tumorigenic lung epithelial HBEC cells, indicating increased sensitivity to cisplatin in NSCLC in vitro.
To investigate the diagnostic potential for CDCA3, the present inventors stratified the UT Lung SPORE cohort data based on CDCA3 expression (CDCA3low=below median, CDCA3high=above median). In this trial, patients undergoing curative resection were either observed only (OBS) or received adjunct chemotherapy (ACT).

The test system of experiment [6] is HCC827 cells. The protocol:
(§1) All NSCLC cell lines were obtained from the American Type Culture Collection (ATCC) except for PC-9 cell line which was sourced from the European Collection of Cell Cultures (ECACC). Cells were grown in RPMI-1640-medium containing L-glutamine (Life Technologies) and 10% foetal bovine serum (FBS, Sigma Aldrich). […] All cell lines were cultured at 37° C. in a humidified 5% CO2 incubator and routinely tested for mycoplasma contamination. Transfection of CDCA3-FLAG expression construct was performed using the FuGene HD transfection reagent (Promega Corporation).
(§2) Cells were seeded into a white-walled, glass-bottomed 384-well plate (Nunc) at a density of 1x10^3 cells per well. […] Cell viability was determined using CellTitre-Glo 2.0 (Promega Corporation) according to the manufacturer's instructions. Luminescence was scanned and analysed on the FLUOstar Omega Microplate Reader (BMG Labtech). Data was normalised to untreated controls and dose response curves and drug potency values generated using GraphPad Prism V9 software.
(§3) The present inventors next sought to assess this possibility in in vitro models of acquired TKI resistance. […] Cells not exposed to TKI were also maintained in culture for the same period, hereafter referred to as the parental cells.

Experiment [7] concerns H1650 cells. Nature of the experiment: Cell viability assay (CellTitre-Glo 2.0), H1650. It counts as cell-based. The conditions noted are these: relative to other cell lines. The protocol: as §1, §2
(§4) The present inventors evaluated TCGA datasets and correlated relative CDCA3 expression against available WikiPathways (2) of known measures of TKI resistance. […] Relative CDCA3 protein levels were correlated with the TKI potency values.

Experiment [8] has as its system H1975 cells. Nature of the experiment: Cell viability assay (CellTitre-Glo 2.0), H1975. In kind it is cell-based. The conditions noted are these: Homo sapiens, NCI-H1975, 72 h. Here is the method:
as §1, §2, §4

In experiment [9] the test system is PC-9 cells. In kind it is cell-based. The conditions noted are these: for effect of ectopic CDCA3 expression on sensitivity: PC-9 parental cells; for enhancement of potency by ectopic CDCA3 expression: PC-9 resistant cells. Here is the method: as §1, §2, §3
Experiment [10] deals with CDCA3. Nature of the experiment: CDCA3 levels after TKI treatment of EGFR mut NSCLC cell lines (FIG. 12). In kind it is cell-based. The conditions noted are these: H1975 cells (L858R, T790M).
Method: Given CDCA3 levels are responsive to EGFR activation, the present inventors examined CDCA3 levels following second and third generation TKI treatment of three EGFR^mut cell lines; HCC827 and H1650 (exon 19 deletion E746-A750) and H1975 cells (L858R, T790M-resistant to first and second generation TKI).
To collect whole cell lysates, cells were first washed in PBS then lysed in lysis buffer (50 mM HEPES (pH 7.5), 150 mM KCl, 5 mM EDTA, 0.05% IGEPAL CA-630 (v/v), 1× protease inhibitor cocktail (Roche), and 1× phosphatase inhibitor cocktail (Cell Signalling Technology). Total protein was determined by bicinchoninic acid (BCA) protein assay (Sigma Aldrich) following lysate sonication and centrifugation. Samples (total protein 20 20 μg) were denatured in 1× Laemmli Buffer supplemented with 8% β-mercaptoethanol for 5 minutes at 80° C.
The samples were separated on Bolt 4-12% Bis-Tris Plus pre-cast gels (Invitrogen) and transferred onto nitrocellulose membrane (GE Healthcare Life Sciences) using the semi-dry Novex XCell II Blot Module transfer system (Life Technologies). The nitrocellulose membranes were blocked using Odyssey blocking buffer (Li-Cor) before incubation overnight at 4° C. with primary antibody in a 1:1 solution of PBS-T and Odyssey Blocking Buffer. Following primary antibody incubation, membranes were washed with PBS-T and incubated with the appropriate secondary antibodies. […]

As to `CC[C@@H]1C(=O)N(C)c2cnc(Nc3ccc(C(=O)NC4CCN(C)CC4)cc3OC)nc2N1C1CCCC1` [BI 2536], the “mitotic entry (mitotic index)” value in [1] is reported as “reduced”. For the same compound, the mitotic entry entry in experiment [2] is “blocked mitotic entry”. Besides, the cell death is reported as roughly 13% in experiment [3] (CDCA3 depleted cells) and roughly 30% in experiment [3] (control cells).
In the case of `O=C1NC(=NCc2cccs2)S/C1=C\c1ccc2ncccc2c1` [R03306], in experiment [4], the “association between CDCA3 and PLK1” value was “increase”.
On to `N.N.[Cl][Pt][Cl]` [cisplatin], for which the “reduction of cisplatin IC50 values by CDCA3-depletion” value in experiment [5] was 2-4 fold.
Consider `C#Cc1cccc(Nc2ncnc3cc(OCCOC)c(OCCOC)cc23)c1` [erlotinib], for which, in [6], the “effect of ectopic CDCA3 expression on sensitivity” value (shortened to “effect of ectopic CDCA3 expression”) is recorded as “did not impact”. In experiment [7], the sensitivity entry was “insensitive”. It took 66.6 µM to reach half-maximal inhibition in experiment [8] (IC50). Also, in [9], the “effect of ectopic CDCA3 expression” value is “did not impact” and the “enhancement of potency by ectopic CDCA3 expression” value (from here on “enhancement of potency”) is roughly 57 fold.
`C=CC(=O)Nc1cc(Nc2nccc(-c3cn(C)c4ccccc34)n2)c(OC)cc1N(C)CCN(C)C` [osimertinib]: in experiment [6], the “effect of ectopic CDCA3 expression” value is on record as “did not impact”, the “enhancement of potency” value is given as roughly 121 fold and the “increase in IC50 values versus parental” value is given as roughly 385 fold. Besides, the CDCA3 levels entry in experiment [10] is on record as “reduced”. Besides, in experiment [9], the “effect of ectopic CDCA3 expression” value was “did not impact” and the “enhancement of potency” value worked out at 54 fold. Further, in experiment [9] (erlotinib resistant PC-9 versus parental PC-9), the “increase in IC50 values versus parental” value was ~1,470 fold.

Source of the values: patent US20230323466A1, “DETERMINING CANCER RESPONSIVENESS TO TREATMENT” (Queensland University of Technology, priority 2020, published 2023).
